Assay results taken from patent US20090137628A1, “Formulations of Indanylamines and the Use Thereof as Local Anesthetics and as Medication for Chronic Pain” (BRIDGE PHARMA, INC., priority 2005, published 2009).

Experiments:
[1] = tested on: animal models of neuropathic pain; experiment: Animal models of neuropathic pain; assay type: in vivo; settings: potentiated by addition of capsaicin
[2] = Physical state of LAC-34 solutions at 4° C.; assay type: physicochemical; settings: 20% LAC-34 in benzyl alcohol
[3] = Saturation solubility in key solvents for dermal drug delivery; assay type: physicochemical
Procedure: A liquid's capability to solubilize LAC-34 was screened by adding a known mass of LAC-34 to a known volume/mass of liquid. Saturation solubility was measured by adding an excess of drug substance and allowing the suspension to equilibrate while stirring for 2-3 days. A sample of the suspension was filtered though a 0.2 μm PTFE membrane followed by dilution (if required) and HPLC analysis. For several mixed solvent systems that included water, a known mass of drug substance was dissolved in a known mass of solvent(s). This solution was then titrated with water while stirring until the solution became cloudy.
HPLC analysis was performed with a HP 1050 system (He degasser, quaternary pump, auto-injector, and variable wavelength detector). The column heater was manufactured by Waters. Data collection and analysis was performed using Chemstation® software.
The saturation solubility of LAC-34 was measured in capric/caprylic triglycerides (CCT), dimethylsulfoxide (DMSO), ethanol, isopropanol, isopropyl myristate (IPM), pentane, propylene glycol (PG), and water. […]
All of the solvents, with the exception of water, were able to dissolve large quantities of LAC-34. […] Propylene glycol (PG), which has multiple actions for dermal drug delivery (see Table 1), was also able to solubilize significant quantities of LAC-34. […]

[4] = tested on: Na+ channel (site 2) in the rat cerebral cortex; settings: 10 nM [3H]batrachotoxin, 60 min at 22° C., rat cerebral cortex membranes; read-out: IC50-values for inhibition of batrachotoxinin binding
[5] = Solubility in ternary solvent mixture with water as anti-solvent; assay type: physicochemical; settings: 150 mg LAC-34 free base; 1 ml polyethylene glycol + 1 ml ethanol + 0.6 ml water
[6] = Local vasodilatation at the dermal injection site; assay type: in vivo; settings: contrary to lidocaine
[7] = tested on: guinea pigs; experiment: Dermal anesthetic activity after dermal application, pinprick method (algesimeter); assay type: in vivo, guinea pig; settings: highest score over time after patch removal, 5.0% solution
Procedure: The purpose of this study was to determine the degree to which various salt forms of LAC-34 contribute to the local dermal anesthetic effect of the compound, following dermal application to guinea pigs.
Four groups of six male guinea pigs received a dose of 2.0 ml of a 5.0% solution of four test articles (LAC-34 base, LAC-34 mono-HCl, LAC-34-di HCl and LAC-34 mesylate) that had been applied onto a two inch square, 4 layer thick gauze pad on depilated dosal skin of each guinea pig. Similarly, one group of guinea pigs received the vehicle, which consisted of DMSO/water (90 percent/10 percent, v/v) and served as the control group. The gauze was occluded and the guinea pigs were wrapped for 30 min. Animals were assessed for initial pain reaction (anesthetic depth) at 15 minute intervals up to 3 hours and at 24 hours. An algesimeter, set at 10 g, was employed to assess the onset and depth of anesthesia using the pinprick method causing a twitch response or non-response. The “Average Anesthetic Score” was defined as number of probings not producing a dermal twitch response. Thus, a situation where there were no dermal twitch responses to six probings represent a maximal anesthetic effect and is denoted as an Average Anesthetic Score of 6.

## c1ccc(N(CCC2CCCCN2)C2Cc3ccccc3C2)cc1 (racemic) [LAC-34, 2-[2-(N-Phenyl-N-2-indanyl)aminoethyl]piperidine]
[1]
  Analgesic activity: exerts analgesic activity
[2]
  Physical state at 4° C.: still a solution
[3]; 0.25 g LAC-34 solubilized once isopropanol level was 0.225 g
  Solubility in isopropanol: approximately 526 mg/mL
[3]; solvent as printed on the line: Propylene glycol (PG)
  LAC-34 Solubility (saturation): 5 µg/mL
[4]
  IC50: 270 nM
[5]
  Solubility in ternary solvent mixture: 5.5 % (w/w)
[6]
  Local vasodilatation at the dermal injection site: not to cause local vasodilatation
[7]
  Maximal depth of anesthesia (Average Anesthetic Score): 4.8
